Laboratory results reported in US20230295088A1, “INSULIN SENSITIZERS FOR THE TREATMENT OF DIABETES MELLITUS” (University of Iowa Research Foundation, priority 2020, published 2023).
“Also recorded” adds a separate entry of the source.

Assays:
lean mice = experiment: Glucose tolerance test in lean mice; type: in vivo, mouse; details: single injection before GTT
Procedure: C3 improves glucose tolerance in lean and obese insulin resistant mice. To test whether C3 improves glucose handling, lean mice were injected with vehicle or C3 30 minutes before performing a glucose tolerance test. […] To further determine if C3 can reverse glucose intolerance, WT mice were made insulin-resistant by feeding them a high fat diet (HFD) for a period of 10 weeks. Diet induced obese (DIO) mice were then injected with vehicle or C3 for 2 weeks while remaining on HFD. […] Together those results establish in vivo efficacy of C3 for the treatment of insulin resistance.

PPARg = target: T1, PPARg (Homo sapiens, UniProt P37231); experiment: Luminescent PPARg reporter assay in vitro; type: cell-based
T1 sequence (P37231 1-505): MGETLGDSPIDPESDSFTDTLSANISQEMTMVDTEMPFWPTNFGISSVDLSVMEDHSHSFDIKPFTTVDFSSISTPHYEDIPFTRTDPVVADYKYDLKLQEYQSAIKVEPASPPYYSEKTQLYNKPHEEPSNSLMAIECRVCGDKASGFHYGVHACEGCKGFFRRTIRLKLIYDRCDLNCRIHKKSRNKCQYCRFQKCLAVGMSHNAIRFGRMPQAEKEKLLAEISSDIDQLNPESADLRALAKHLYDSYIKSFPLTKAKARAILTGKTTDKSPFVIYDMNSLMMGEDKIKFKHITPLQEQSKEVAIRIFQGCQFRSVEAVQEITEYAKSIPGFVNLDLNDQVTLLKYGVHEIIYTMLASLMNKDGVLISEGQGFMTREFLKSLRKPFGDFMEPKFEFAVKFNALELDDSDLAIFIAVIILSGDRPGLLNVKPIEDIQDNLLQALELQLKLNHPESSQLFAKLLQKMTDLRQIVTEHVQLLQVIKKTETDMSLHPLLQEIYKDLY
Excerpt: C3 is not liver toxic and acts through a different mechanism than TZDs. […] Deleterious side effect or TZDs are due to their agonism of PPARg.

[1] = system: GLUT4 expressing tissues of DIO mice; experiment: PET/CT measurement of 18F-FDG uptake in DIO mice; type: in vivo, mouse; details: HFD supplemented with C59 for two weeks
Procedure: C59 improves glucose uptake in storage tissues of DIO mice. Since insulin resistance results in a failure to transport glucose from the circulation to tissues that can use it as a source of energy or store it, it was tested whether treating insulin resistant DIO mice with C59 results in an increase in glucose uptake in GLUT4 expressing tissues. For this, insulin resistant DIO mice (fed a HFD for 10 weeks) were fed HFD or HFD supplemented with C59 for two weeks before injection of ^18F-FDG and uptake of the radioactive glucose tracer was measured by PET/CT.

Unc119 = target: T2, Unc119 (Mus musculus, UniProt Q9Z2R6); experiment: Proteome Integral Solubility Alteration (PISA) assay, Unc119; type: binding; parameters: dose or concentration left out as unconfirmed
T2 construct: endogenous in cells
Excerpt: (§1) Identification of the molecular target of C59. Since the discovery of C59 as an insulin sensitizer was achieved using a phenotypic screen, the molecular target of the compound was unknown. To identify the target, a Proteome Integral Solubility Alteration (PISA) assay was used. […] To measure the shift in thermal stability, constructs coding for Unc119-HiBiT and Unc119b-HiBit were generated, thus allowing the quantitative detection of those proteins by adding LgBiT and furimazin to the lysates and measuring luminescence. Crude extract from cells transfected with Unc119-HiBiT or Unc119b-HiBiT, were incubated with DMSO or C59 for 10 minutes, aliquoted, heated for 3 minutes at the indicated temperature and allowed to cool down to room temperature before adding LgBiT and furimazin and reading luminescence on a plate reader.

Unc119b = target: T3, Unc119b (Mus musculus, UniProt Q8C4B4); experiment: Proteome Integral Solubility Alteration (PISA) assay, Unc119b; type: binding; parameters: dose or concentration left out as unconfirmed
T3 construct: endogenous in cells
Excerpt: as §1

Unc119 KO HBG4 cells [2] = experiment: Insulin-stimulated GLUT4 translocation in Unc119 KO HBG4 cells; type: cell-based, mouse
Procedure: (§2) Unc119 and Unc119b are important for the insulin sensitizing effect of C59. After identifying Unc119 proteins as molecular targets for C59, it was tested whether those proteins were responsible for the insulin sensitizing activity of C59. To this end Unc119 and Unc119b KO HBG4 cells were generated using CRISPR/Cas9 technology. For each of those cell lines two gRNA surrounding the start codon were used, thus resulting in a deletion of a fragment of the Unc119 genes that includes the ATG. Deletion of Unc119 and Unc119b in clonal cell lines were screened and verified by PCR (FIG. 4E). The effect of C59 on insulin-stimulated. […] To further test this finding, 3H-Deoxy-D-Glucose uptake in WT, Unc119 KO and Unc119b KO HBG4 cells treated with vehicle, insulin, C59 alone and C59 with insulin was measured.

Unc119b KO HBG4 cells [3] = experiment: Insulin-stimulated GLUT4 translocation in Unc119b KO HBG4 cells; type: cell-based, mouse
Procedure: as §2

WT HBG4 cells = experiment: 3H-Deoxy-D-Glucose uptake in WT HBG4 cells; type: cell-based, mouse
Procedure: as §2

Unc119 KO HBG4 cells [4] = experiment: 3H-Deoxy-D-Glucose uptake in Unc119 KO HBG4 cells; type: cell-based, mouse
Procedure: as §2

Unc119b KO HBG4 cells [5] = experiment: 3H-Deoxy-D-Glucose uptake in Unc119b KO HBG4 cells; type: cell-based, mouse
Procedure: as §2

[6] = Solubility in aqueous solution; type: physicochemical; details: compared with C3

T3 sequence (Q8C4B4 whole entry): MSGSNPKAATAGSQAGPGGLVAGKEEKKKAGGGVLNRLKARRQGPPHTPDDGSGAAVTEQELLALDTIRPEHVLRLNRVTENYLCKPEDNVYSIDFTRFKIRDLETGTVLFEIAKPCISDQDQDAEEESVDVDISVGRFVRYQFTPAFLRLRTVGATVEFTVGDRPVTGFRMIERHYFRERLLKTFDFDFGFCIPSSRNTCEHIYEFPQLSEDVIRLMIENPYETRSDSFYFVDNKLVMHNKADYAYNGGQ

Q: Which results are given for `O=C(Nc1ccc(Cl)c(Cl)c1)C12CC3CC(CC(C3)C1)C2` [Compound C59]?
A: glucose clearance in glucose tolerance test (lean mice): improvement; PPARg agonist activity (PPARg): neither C3 nor C59 have PPARγ agonist activity; 18F-FDG uptake in BAT [1]: significantly increased; 18F-FDG uptake in WAT [1]: significantly increased; 18F-FDG uptake in heart tissues [1]: significantly increased; 18F-FDG uptake in skeletal muscles [1]: significantly increased; thermostability of Unc119 (PISA) (Unc119; live cells, vs DMSO and C29): increased the thermostability; also recorded: concentration dependent increased thermostability; thermostability of Unc119 (PISA) (Unc119; lysates (crude extract)): increased the thermostability; thermostability of Unc119b (PISA) (Unc119b; live cells, vs DMSO and C29): increased the thermostability; also recorded: concentration dependent increased thermostability; thermostability of Unc119b (PISA) (Unc119b; lysates (crude extract)): increased the thermostability; insulin-stimulated GLUT4 translocation (Unc119 KO HBG4 cells [2]): failed to enhance; insulin-stimulated GLUT4 translocation (Unc119b KO HBG4 cells [3]): failed to enhance; 3H-Deoxy-D-Glucose uptake, compound alone (WT HBG4 cells; no insulin): did not stimulate; insulin stimulated 3H-Deoxy-D-Glucose uptake (WT HBG4 cells; with insulin): significantly increased; 3H-Deoxy-D-Glucose uptake, compound alone (Unc119 KO HBG4 cells [4]; no insulin): did not stimulate; insulin stimulated 3H-Deoxy-D-Glucose uptake (Unc119 KO HBG4 cells [4]; with insulin): failed to do so; 3H-Deoxy-D-Glucose uptake, compound alone (Unc119b KO HBG4 cells [5]; no insulin): did not stimulate; insulin stimulated 3H-Deoxy-D-Glucose uptake (Unc119b KO HBG4 cells [5]; with insulin): failed to do so; solubility in aqueous solution [6]: improved solubility
